Test results published in patent publication US20230286983A1 (4E Therapeutics, Inc., priority 2020, published 2023).
Several values for one entry are separate records, joined by “and”; a condition that tells them apart may be missing. Equal values may be shown once. Read-outs that look alike come from different tables or passages of the source.

Experiments:
[1] = Liver microsome stability, rat; type: in vitro ADME; details: Rat liver microsomes (#)
[2] = Pharmacokinetic study, 4ET-03-009 at 10 mg/kg oral; type: in vivo, CD-1 male mice; details: for AUCinf/D / Cmax/D: dose normalized; for concentration at 24 hours: read-out: Clast
Experimental: Compound 4ET-03-009 was dissolved in a 10% dimethylacetamide (DMA)/[…] solvent. CD-1 male mice were orally dosed with 10 mg/kg of compound 4ET-03-009 in 20 mL/kg of liquid. Plasma was collected at indicated timepoints and plasma concentration of compound 4ET-03-009 was measured using liquid chromatography-mass spectrometry/mass spectrometry (LC-MS/MS). Results are presented in FIG. 1 and Tables 3, 4, and 5.

[3] = molecular target: Cdc2-like kinase 4 (CLK4) (Homo sapiens, UniProt Q9HAZ1); test: Off-target kinase screen CLK4; type: biochemical; details: 1 μM test compound
Description: (§1) These kinases were chosen because they are the only known off-target hit kinases for eFT508. These assays were done using recombinant human kinases (CLK4, DRAK1 and PKG2) in a substrate phosphorylation assay. % activity remaining after MNK inhibitor treatment is indicated in Table 12.

[4] = tested on: eIF4E phosphorylation at Serine 209 in the human osteosarcoma (U2OS) cell line; test: eIF4E phosphorylation in U2OS cells (fluorescent plate reader); type: cell-based; details: Homo sapiens, U2OS; eIF4E phosphorylation at Serine 209, 2 hours exposure
Experimental: The ability of MNK inhibitors described herein to inhibit eIF4E phosphorylation at Serine 209 in the human osteosarcoma (U2OS) cell line was tested by exposing the cells to compound for 2 hours and then measuring eIF4E phosphorylation with a phosphorylation-specific antibody in a fluorescent plate reader.

p-eIF4E = test: Western blot of eIF4E and p-eIF4E in tissues, 4ET-03-009; type: in vivo, mice; details: 10 mg/kg oral, 2 hours after dosing, vs vehicle
Experimental: In separate mice administered the same therapy, 2 hours after dosing tissues were harvested from the sciatic nerve, liver, brain, and DRG and homogenized, then subjected to Western blot analysis for eIF4E and p-eIF4E. Control mice administered only the solvent vehicle with no MNK inhibitor were also assayed. Amounts of p-eIF4E in each tissue based on the mean for all three mice administered the therapeutic and based on the mean for all three control mice are presented in FIG. 2, right panel. […] Units on the y-axis are % of signal standardized to the control.

[5] = molecular target: T1, death-associated protein kinase-related apoptosis-inducing protein kinase 1 (DRAK1) (Homo sapiens, UniProt Q9UEE5); test: Off-target kinase screen DRAK1; type: biochemical; details: 1 μM test compound
T1 sequence (Q9UEE5 1-414): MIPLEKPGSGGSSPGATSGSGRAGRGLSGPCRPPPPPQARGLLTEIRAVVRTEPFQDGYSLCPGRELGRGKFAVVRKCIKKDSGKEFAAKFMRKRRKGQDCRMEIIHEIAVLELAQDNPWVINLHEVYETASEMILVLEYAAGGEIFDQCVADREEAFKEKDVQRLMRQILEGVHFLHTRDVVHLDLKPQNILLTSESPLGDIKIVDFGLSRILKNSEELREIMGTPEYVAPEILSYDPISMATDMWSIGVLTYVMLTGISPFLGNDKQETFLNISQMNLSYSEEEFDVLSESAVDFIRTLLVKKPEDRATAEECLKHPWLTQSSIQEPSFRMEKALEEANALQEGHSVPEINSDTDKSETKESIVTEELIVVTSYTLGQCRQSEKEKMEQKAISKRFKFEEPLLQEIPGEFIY
Description: as §1

[6] = tested on: eIF4E phosphorylation at Serine 209 in Karpas 299; test: eIF4E phosphorylation in Karpas 299 cells (sandwich ELISA); type: cell-based; details: Homo sapiens, read-out: Karpas 299 cell IC50
Experimental: The ability of MNK inhibitors described herein to inhibit eIF4E phosphorylation at Serine 209 in Karpas 299, Human Non-Hodgkin's Ki-positive Large Cell Lymphoma cell line was tested by sandwich enzyme linked immune-absorbance assay.

[7] = male, CD-1, mouse, plasma, po, 10 mg/kg, Mean (n = 3)
[8] = male, CD-1, mouse, plasma, po, 10 mg/kg, individual animals

Cdc2-like kinase 4 (CLK4), sequence (Q9HAZ1 whole entry): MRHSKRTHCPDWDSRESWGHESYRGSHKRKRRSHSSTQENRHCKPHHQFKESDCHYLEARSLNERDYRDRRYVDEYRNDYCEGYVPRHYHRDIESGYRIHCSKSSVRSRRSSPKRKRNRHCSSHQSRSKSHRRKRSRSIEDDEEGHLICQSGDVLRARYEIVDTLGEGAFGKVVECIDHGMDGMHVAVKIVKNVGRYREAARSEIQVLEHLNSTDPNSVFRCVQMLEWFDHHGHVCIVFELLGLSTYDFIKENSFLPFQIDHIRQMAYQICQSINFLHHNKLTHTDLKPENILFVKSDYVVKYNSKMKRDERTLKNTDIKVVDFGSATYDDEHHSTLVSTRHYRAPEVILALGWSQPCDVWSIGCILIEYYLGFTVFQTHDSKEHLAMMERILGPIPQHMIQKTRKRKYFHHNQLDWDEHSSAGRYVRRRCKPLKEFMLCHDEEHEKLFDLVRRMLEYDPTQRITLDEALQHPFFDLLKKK

Compound: Cc1cc(Nc2cc(NC(=O)C3CC3)ncn2)c(=O)n2c1C(=O)NC21CCOCC1 [Compound 4ET-03-009, N-(6-((8-Methyl-1,5-dioxo-1,2′,3′,5,5′,6′-hexahydro-2H-spiro[imidazo[1,5-a]pyridine-3,4′-pyran]-6-yl)amino)pyrimidin-4-yl)cyclopropanecarboxamide]
- microsomal CLint ([1]; read-out: CLint rodent): 2.54 µL/min/mg
- half-life ([1]; read-out: Rodent liver microsomes t1/2): 9.08 h
- abnormal clinical symptoms during the study [2]: No abnormal clinical symptoms were observed
- Plasma Conc. (per mouse n = 3) ([2]; 0.083 hours): 85.3 ng/mL and 106 ng/mL
- Plasma Conc. (per mouse n = 3) ([2]; 0.25 hours): 147 ng/mL and 161 ng/mL
- Plasma Conc. (per mouse n = 3) ([2]; 0.5 hours): 270 ng/mL and 205 ng/mL
- Plasma Conc. (per mouse n = 3) ([2]; 1 hours): 318 ng/mL and 233 ng/mL
- Plasma Conc. (per mouse n = 3) ([2]; 2 hours): 271 ng/mL and 216 ng/mL
- Plasma Conc. (per mouse n = 3) ([2]; 4 hours): 169 ng/mL and 124 ng/mL
- Plasma Conc. (per mouse n = 3) ([2]; 6 hours): 80.2 ng/mL and 70.6 ng/mL
- Plasma Conc. (per mouse n = 3) ([2]; 8 hours): 62.9 ng/mL and 53.9 ng/mL
- Plasma Conc. (per mouse n = 3) ([2]; 24 hours): 2.28 ng/mL and 1.84 ng/mL
- Tlast ([2]; Mean (n = 3)): 24.0 h
- t1/2 ([2]; Mean (n = 3)): 3.46 h
- AUCinf/D ([2]; Mean (n = 3)): 162 kg·h/kL
- Cmax/D ([2]; Mean (n = 3)): 29.4 kg/kL
- AUC0-8 hours ([2]; individual animals): 1349 ng·h/mL and 1066 ng·h/mL
- AUCinf ([2]; individual animals): 1882 ng·h/mL and 1520 ng·h/mL
- AUClast ([2]; individual animals): 1870 ng·h/mL and 1511 ng·h/mL
- Clast ([2]; individual animals): 2.28 ng/mL and 1.84 ng/mL
- Cmax ([2]; individual animals): 318 ng/mL and 233 ng/mL
- MRTinf ([2]; individual animals): 4.64 h and 4.74 h
- Tlast ([2]; individual animals): 24.0 h
- t1/2 ([2]; individual animals): 3.44 h and 3.37 h
- AUCinf/D ([2]; individual animals): 147 kg·h/kL and 188 kg·h/kL and 152 kg·h/kL
- Cmax/D ([2]; individual animals): 33.1 kg/kL and 31.8 kg/kL and 23.3 kg/kL
- Tmax ([2]; male, CD-1, mouse, plasma, individual animals): 1 h
- concentration at 0.083 h ([2]; male, CD-1, mouse, plasma, oral, 10 mg/kg, 0.083 hours, mean n = 3, read-out: Plasma Conc. Mean): 90.4 ng/mL
- concentration at 0.083 h ([2]; male, CD-1, mouse, plasma, oral, 10 mg/kg, 0.083 hours, read-out: Plasma Conc. (per mouse n = 3)): 79.8 ng/mL
- concentration at 0.25 h ([2]; male, CD-1, mouse, plasma, oral, 10 mg/kg, 0.25 hours, mean n = 3, read-out: Plasma Conc. Mean): 138 ng/mL
- concentration at 0.25 h ([2]; male, CD-1, mouse, plasma, oral, 10 mg/kg, 0.25 hours, read-out: Plasma Conc. (per mouse n = 3)): 106 ng/mL
- concentration at 0.5 hours ([2]; male, CD-1, mouse, plasma, oral, 10 mg/kg, 0.5 hours, mean n = 3, read-out: Plasma Conc. Mean): 226 ng/mL
- concentration at 0.5 h ([2]; male, CD-1, mouse, plasma, oral, 10 mg/kg, 0.5 hours, read-out: Plasma Conc. (per mouse n = 3)): 202 ng/mL
- concentration at 1 h ([2]; male, CD-1, mouse, plasma, oral, 10 mg/kg, 1 hours, mean n = 3, read-out: Plasma Conc. Mean): 294 ng/mL
- concentration at 1 h ([2]; male, CD-1, mouse, plasma, oral, 10 mg/kg, 1 hours, read-out: Plasma Conc. (per mouse n = 3)): 331 ng/mL
- concentration at 2 h ([2]; male, CD-1, mouse, plasma, oral, 10 mg/kg, 2 hours, mean n = 3, read-out: Plasma Conc. Mean): 255 ng/mL
- concentration at 2 h ([2]; male, CD-1, mouse, plasma, oral, 10 mg/kg, 2 hours, read-out: Plasma Conc. (per mouse n = 3)): 227 ng/mL
- concentration at 4 h ([2]; male, CD-1, mouse, plasma, oral, 10 mg/kg, 4 hours, mean n = 3, read-out: Plasma Conc. Mean): 132 ng/mL
- concentration at 4 h ([2]; male, CD-1, mouse, plasma, oral, 10 mg/kg, 4 hours, read-out: Plasma Conc. (per mouse n = 3)): 104 ng/mL
- concentration at 6 h ([2]; male, CD-1, mouse, plasma, oral, 10 mg/kg, 6 hours, mean n = 3, read-out: Plasma Conc. Mean): 66.7 ng/mL
- concentration at 6 h ([2]; male, CD-1, mouse, plasma, oral, 10 mg/kg, 6 hours, read-out: Plasma Conc. (per mouse n = 3)): 49.3 ng/mL
- concentration at 8 h ([2]; male, CD-1, mouse, plasma, oral, 10 mg/kg, 8 hours, mean n = 3, read-out: Plasma Conc. Mean): 52.5 ng/mL
- concentration at 8 h ([2]; male, CD-1, mouse, plasma, oral, 10 mg/kg, 8 hours, read-out: Plasma Conc. (per mouse n = 3)): 40.6 ng/mL
- concentration at 24 h ([2]; male, CD-1, mouse, plasma, oral, 10 mg/kg, 24 hours, mean n = 3, read-out: Plasma Conc. Mean): 1.92 ng/mL
- concentration at 24 h ([2]; male, CD-1, mouse, plasma, oral, 10 mg/kg, 24 hours, read-out: Plasma Conc. (per mouse n = 3)): 1.64 ng/mL
- concentration at 24 hours ([2]; male, CD-1, mouse, plasma, oral, 10 mg/kg, Mean (n = 3)): 1.92 ng/mL
- concentration at 24 hours ([2]; male, CD-1, mouse, plasma, oral, 10 mg/kg, individual animals): 1.64 ng/mL
- AUC(0-inf) [2, 7]: 1620 ng·h/mL
- MRT inf [2, 7]: 4.5 h
- half-life [2, 7]: 3.5 h
- AUC(0-t) ([2]; male, CD-1, mouse, plasma, po, 10 mg/kg, Mean (n = 3), read-out: AUC0-8 hours): 1180 ng·h/mL
- AUC(0-t) ([2]; male, CD-1, mouse, plasma, po, 10 mg/kg, Mean (n = 3), read-out: AUClast): 1610 ng·h/mL
- Cmax ([2]; male, CD-1, mouse, plasma, po, 10 mg/kg, Mean (n = 3), read-out: Cmax): 294 ng/mL
- AUC(0-inf) ([2]; male, CD-1, mouse, plasma, po, 10 mg/kg, for the study): 1620 ng·h/mL
- Cmax ([2]; male, CD-1, mouse, plasma, po, 10 mg/kg, for the study, read-out: Cmax): 716 nM
- AUC(0-inf) [2, 8]: 1460 ng·h/mL
- MRT inf [2, 8]: 4.12 h
- half-life [2, 8]: 3.58 h
- AUC(0-t) ([2]; male, CD-1, mouse, plasma, po, 10 mg/kg, individual animals, read-out: AUC0-8 hours): 1120 ng·h/mL
- AUC(0-t) ([2]; male, CD-1, mouse, plasma, po, 10 mg/kg, individual animals, read-out: AUClast): 1460 ng·h/mL
- Cmax ([2]; male, CD-1, mouse, plasma, po, 10 mg/kg, individual animals, read-out: Cmax): 331 ng/mL
- remaining activity at 1 µM [3]: 54%
- IC50 [4]: 1.7 nM
- p-eIF4E in sciatic nerve, liver, brain and DRG (p-eIF4E): significantly decreased peIF4E in all tissues assayed
- remaining activity at 1 µM [5]: 16%
- IC50 [6]: 6.2 nM
